# Patent US11013732B2, “Use of macroazapyridinophanes metal complexes in the treatment of diseases” (BIONOS BIOTECH, S.L, priority 2017, dated 2021)
# Test system: Caenorhabditis elegans expressing 110Q::TdTomato in mechanosensory neurons
# Test: Gentle touch sensitivity in C. elegans' Huntington's disease model expressing 110Q::TdTomato
# Format: in vivo
# Conditions: 110Q::TdTomato animals without metal complex (II)
# Method: The study was conducted to assess whether administration of metal complex (II) improves the neurosensitivity (gentle touch sensitivity) in Caenorhabditis elegans' (C. elegans) Huntington's disease model.
# The initial and most generally used method to test for gentle touch sensitivity is to stroke animals with an eyebrow hair that has been glued to the end of a toothpick (FIG. 4).
# C. elegans expressing 110CAG fused in frame with TdTomato in mechanosensory neurons aggregate and induced neural impairment were used. […] The tissue in light grey is the marker for transgenesis (i.e. green fluorescent protein (GFP) expressed in the pharynx).
# The test was carried out using non-treated animals (expressing 110Q::TdTomato and thus showing neuronal impairment) as a control C, and animals treated with Metformin at 2 mM were used as a positive control. Each test was carried out treating animals (expressing 110Q::TdTomato showing neuronal impairment) with 5, 10 and 20 μM concentrations of metal complex (II), using non-treated animals as a control and animals treated with Metformin at a concentration of 2 mM as a positive control.
# Finally, it was tested whether the rescue of the neuronal impairment due to 110Q::TdTomato expression shown with the treatment of metal complex (II) is produced by activation of autophagy. […]
structure (smiles),measurement,value
"CCN(CC)CCCC(C)Nc1ccnc2cc(Cl)ccc12 (stereo not shown) [Chloroquine, reference compound]","% of individuals showing touch response, chloroquine alone",does not induce additional touch response impairment
